From US9981972B2, “N-hydroxy bicyclic hydantoin carbamates as tools for identification of serine hydrolase targets” (ABIDE THERAPEUTICS, INC., priority 2014, dated 2018)

Tests used:
[1] = biological target: T1, ABHD6 (Homo sapiens, UniProt Q9BV23); assay: Selectivity analysis by ABPP-SILAC, HeLa cells in situ, FP-biotin; assay type: cell-based; details: 2 h in situ, read-out: inhibition of anti-target ABHD6 (ABPP-SILAC)
T1 construct: endogenous in cells; host or cells: HeLa
Description: (§1) Competitive ABPP-SILAC (Adibekian, A., et al. J Am Chem Soc, 2012. 134(25): p. 10345-8) combined competitive ABPP (Leung, D., et al. Nat Biotechnol, 2003. 21(6): p. 687-91) with stable isotope labeling of cells (SILAC) (Ong, S. E., et al. Mol Cell Proteomics, 2002. 1(5): p. 376-86), and allowed for precise quantitation of enzyme inhibition by calculating the isotopic ratios of peptides from inhibitor-treated and control cells.
(§2) Assay Overview: The purpose of this assay was to determine the selectivity profile of powder samples of test compounds using stable isotope labeling with amino acids in cell culture (SILAC) ABPP. In this assay, cultured HeLa cells were metabolically labeled with light or heavy amino acids. Light and heavy cells were treated with inhibitor and DMSO, respectively, in situ. Cells were harvested, and proteome fractions were isolated and reacted with the serine-hydrolase-specific activity-based affinity probe fluorophosphonate-biotin (FP-biotin). Light and heavy samples were combined in a 1:1 (w/w) ratio. Biotinylated proteins were enriched, trypsinized, and analyzed by LC/LC-MS/MS (MudPIT) Inhibition of target and anti-target activity was quantified by comparing intensities of light and heavy peptide peaks. […] Proteins not targeted by inhibitors were expected to have a ratio close to 1.
(§3) Sample Preparation. HeLa cells were initially grown for at least eight passages in either light or heavy SILAC DMEM medium supplemented with 10% dialyzed FCS and 1× PenStrep Glutamine in a humidified incubator (37° C., 5% CO2). Light medium was supplemented with 100 μg/mL L-arginine (Sigma) and 100 μg/mL L-lysine (Sigma). Heavy medium was supplemented with 100 μg/mL [13C615N4]-L-Arginine (Isotek) and 100 μg/mL [13C615N2]-L-Lysine (Isotek). […]
(§4) LC-MS/MS analysis. Samples were analyzed by multidimensional liquid chromatography tandem mass spectrometry (MudPIT) using an Agilent 1200-series quaternary pump and Thermo Scientific LTQ Orbitrap Velos ion trap mass spectrometer. […]

[2] = biological target: T2, MAGL (Homo sapiens, UniProt Q99685); assay: as above; assay type: cell-based; details: 2 h in situ
T2 construct: endogenous in cells; host or cells: HeLa
Description: as §1, §2, §3, §4

[3] = system: human LYPLA1/2; assay: as above; assay type: cell-based; details: 1 μM, 2 h in situ
Description: as §1, §2, §3, §4

[4] = biological target: T3, human LYPLA2 (Homo sapiens, UniProt O95372); assay: IC50 by gel-based competitive ABPP in situ, cultured HeLa cells; assay type: cell-based; details: 2 h, serum-supplemented medium
T3 construct: endogenous human LYPLA1/2 in a HeLa soluble proteome; endogenous in cells; host or cells: HeLa (soluble proteome in vitro; cultured cells in situ)
Description: (§5) Assay Overview: The purpose of this assay was to determine IC50 values of powder samples of test compounds for enzyme of interest activity in situ using a gel-based competitive ABPP assay. In this assay, cultured cells were treated with test compound, harvested, and lysed. The isolated soluble proteome fraction was reacted with FP-Rh and analyzed by SDS-PAGE as described above.
(§6) Protocol Summary: To cultured HeLa cells (90% confluent) was added fresh DMEM (5 mL total volume; supplemented with 10% FCS) pre-mixed with DMSO or test compound. After 2 hours at 37° C., cells were harvested by scraping, washed twice with 10 mL DPBS, and homogenized by sonication in DPBS. The soluble fraction was isolated by centrifugation (100K×g, 45 minutes) and the protein concentration was adjusted to 1 mg/mL with DPBS. FP-Rh (1 μL of 50× stock in DMSO) was added to a final concentration of 2 μM in 50 μL total reaction volume. The reaction was incubated for 30 minutes at 25° C., quenched with 16 μL 4×SDS-PAGE loading buffer (reducing), separated by SDS-PAGE and visualized by in-gel fluorescent scanning. The percentage activity remaining was determined by measuring the integrated optical density of the enzymes of interest, and anti-target bands relative to a DMSO-only (no compound) control. […]

[5] = biological target: T4, human LYPLA1 (Homo sapiens, UniProt O75608); assay: as above; assay type: cell-based; details: 2 h, serum-supplemented medium
T4 construct: endogenous human LYPLA1/2 in a HeLa soluble proteome; endogenous in cells; host or cells: HeLa (soluble proteome in vitro; cultured cells in situ)
Description: as §5, §6

[6] = biological target: T5, ABHD4 (Mus musculus, UniProt Q8VD66); assay: Inhibition by gel-based competitive ABPP in vivo; details: 1-40 mg/kg i.p., 4 h, any tissue examined
T5 construct: from tissue; host or cells: tissues of C57BL6 mice
Description: Compound 26, Compound 34, and Compound 1 were administered across a dose range of 1-40 mg/kg to C57BL6 mice by intraperitoneal injection, and, after 4 hours, animals were sacrificed and tissues harvested for analysis by gel-based ABPP using the FP-Rh probe and the Compound 39 probe.

T5 sequence (Q8VD66 whole entry): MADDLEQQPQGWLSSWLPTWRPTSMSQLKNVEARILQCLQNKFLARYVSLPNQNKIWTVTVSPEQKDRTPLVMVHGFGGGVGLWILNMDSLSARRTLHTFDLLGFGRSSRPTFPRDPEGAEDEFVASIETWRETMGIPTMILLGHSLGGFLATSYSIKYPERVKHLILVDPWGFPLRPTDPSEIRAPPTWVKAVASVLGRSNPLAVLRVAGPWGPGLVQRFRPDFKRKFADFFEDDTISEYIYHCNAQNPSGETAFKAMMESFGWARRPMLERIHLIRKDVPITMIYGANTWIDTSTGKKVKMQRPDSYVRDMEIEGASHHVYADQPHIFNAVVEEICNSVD
T1 sequence (Q9BV23 whole entry): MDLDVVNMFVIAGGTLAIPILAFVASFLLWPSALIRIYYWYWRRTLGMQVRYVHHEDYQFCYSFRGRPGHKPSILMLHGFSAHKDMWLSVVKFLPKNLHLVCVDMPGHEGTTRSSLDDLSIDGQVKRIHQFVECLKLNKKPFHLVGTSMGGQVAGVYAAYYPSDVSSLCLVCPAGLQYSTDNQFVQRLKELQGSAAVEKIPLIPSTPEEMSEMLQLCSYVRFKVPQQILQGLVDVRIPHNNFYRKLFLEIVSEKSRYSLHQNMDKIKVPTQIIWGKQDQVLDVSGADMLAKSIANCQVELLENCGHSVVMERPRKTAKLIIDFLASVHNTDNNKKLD
T2 sequence (Q99685 whole entry): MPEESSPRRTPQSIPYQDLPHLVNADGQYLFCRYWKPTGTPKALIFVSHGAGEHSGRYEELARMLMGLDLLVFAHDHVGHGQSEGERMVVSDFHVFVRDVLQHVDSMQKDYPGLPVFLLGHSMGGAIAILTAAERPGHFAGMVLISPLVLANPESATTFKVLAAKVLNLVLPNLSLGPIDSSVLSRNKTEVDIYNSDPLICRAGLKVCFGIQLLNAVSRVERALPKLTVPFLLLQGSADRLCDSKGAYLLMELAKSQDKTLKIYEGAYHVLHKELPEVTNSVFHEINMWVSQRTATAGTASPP
T4 sequence (O75608 whole entry): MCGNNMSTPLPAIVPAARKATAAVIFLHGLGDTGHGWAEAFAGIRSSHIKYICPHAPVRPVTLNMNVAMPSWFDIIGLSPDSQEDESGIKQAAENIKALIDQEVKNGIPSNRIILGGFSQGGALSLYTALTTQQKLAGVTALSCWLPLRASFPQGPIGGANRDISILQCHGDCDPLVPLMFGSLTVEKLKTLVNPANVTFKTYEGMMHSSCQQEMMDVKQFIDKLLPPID
T3 sequence (O95372 whole entry): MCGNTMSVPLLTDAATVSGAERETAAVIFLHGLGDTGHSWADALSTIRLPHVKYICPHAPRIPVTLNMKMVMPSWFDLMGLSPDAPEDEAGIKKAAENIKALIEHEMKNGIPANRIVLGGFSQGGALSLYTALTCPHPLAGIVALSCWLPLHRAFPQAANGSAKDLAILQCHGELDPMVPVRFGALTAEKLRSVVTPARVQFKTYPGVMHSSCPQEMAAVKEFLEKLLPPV

| SMILES | inhibition at 1 µM [1] | inhibition at 1 µM [2] | inhibition of human LYPLA1/2 (ABPP-SILAC) [3] | IC50 [4] | IC50 [5] | blockade of ABHD4 in vivo [6] |
| --- | --- | --- | --- | --- | --- | --- |
| O=C(ON1C(=O)C2CN(C(=O)N3CCOCC3)CCN2C1=O)N1CCC(CCc2ccc(Cl)cc2)CC1 (stereo not drawn) [Compound 1, 7-(morpholine-4-carbonyl)-1,3-dioxohexahydroimidazo[1,5-a]pyrazin-2(3H)-yl 4-(4-chloro-phenethyl)piperidine-1-carboxylate] | > 90% | ~40% | > 90% | 143 nM | 87 nM | – |
| O=C(ON1C(=O)C2CN(Cc3ccc(Oc4ccccc4)cc3)CCN2C1=O)N1CCOCC1 (stereo not drawn) [Compound 34, 1,3-dioxo-7-(4-phenoxybenzyl)hexahydroimidazo[1,5-a]pyrazin-2(3H)-yl morpholine-4-carboxylate] | – | – | – | – | – | did not block the activity of ABHD4 in any tissue examined |
